Earlier results in patent US8868172B2, “Methods and systems for recommending an appropriate action to a patient for managing epilepsy and other neurological disorders” (Cyberonics, Inc., priority 2005, dated 2014).
Read-outs that look alike come from different tables or passages of the source.

Legend:
[1] = not given; remark: listed apart in the source
[2] = for plasma concentration average per daily dose of 1 mg/kg: long term therapy
T-type Ca^2+ currents = conditions: in vitro
[3] = test system: GABA/benzodiazepine receptor ionophore complex; conditions: allosteric, no changes in chloride flux
rat hippocampal slices = conditions: 10-30 μg/mL
[4] = test system: cultured mouse spinal cord neurons; conditions: 10-30 μg/mL
[5] = test system: dopaminergic and serotonergic neurotransmission; conditions: in vivo microdialysis
sodium channels = conditions: in vitro
[6] = per daily dose of 1 mg/kg of the drug itself

O=C1NC(=O)C(c2ccccc2)(c2ccccc2)N1 [Phenyloin, diphenylhydantoin]
concentrations at which chronic control of seizures is generally obtained: above 10 μg/ml | concentrations at which toxic effects such as nystagmus develop [1]: around 20 μg/ml

CCC1(C)CC(=O)NC1=O (centres unmarked) [ethosuximide, Ethosuximide]
plasma concentration average per daily dose of 1 mg/kg [2, 6]: about 2 μg/ml

CCC1(c2ccccc2)C(=O)NC(=O)NC1=O [phenobarbital]
plasma concentration of phenobarbital per daily dose of 1 mg/kg of primidone ([2]; long term therapy with primidone): about 2 μg/ml | plasma concentration average per daily dose of 1 mg/kg ([2]; adults, per daily dose of 1 mg/kg): about 10 μg/ml

CCC1(c2ccccc2)C(=O)NCNC1=O [primidone, Primidone]
plasma concentration average per daily dose of 1 mg/kg [2, 6]: about 1 μg/ml

NS(=O)(=O)Cc1noc2ccccc12 [zonisamide, 1,2-benzisoxazole-3-methanesulfonamide]
carbonic anhydrase inhibiting activity (carbonic anhydrase): weak | effect on voltage-dependent, transient inward currents (T-type Ca2+ currents) (T-type Ca^2+ currents): reduces | binding to the GABA/benzodiazepine receptor ionophore complex [3]: binds | effect on neuronal or glial uptake of [3H]-GABA (rat hippocampal slices): without affecting | effect on postsynaptic GABA or glutamate responses [4]: without affecting | effect on synaptically-driven electrical activity [4]: suppresses | effect on dopaminergic and serotonergic neurotransmission [5]: facilitates | effect on sodium channels (sodium channels): blocks
